Experimental data: ChEMBL document CHEMBL1201862, “PubChem BioAssay data set” (2004)
Calls of active or inactive are those of the source.

How the values were obtained:
[1] = biological target: T1, Epstein-Barr nuclear antigen 1 (Epstein-Barr virus (strain B95-8) (HHV-4) (Human herpesvirus 4), UniProt P03211); experiment: inhibition of EBV nuclear antigen 1 DNA binding – biochemical, fluorescence polarization, 1536-well, dose response (AID 2381); parameters: species or system human gammaherpesvirus 4;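 further: fluorescence polarization of a Cy5 DNA probe bound by EBNA-1 protein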
T1 sequence (P03211 whole entry): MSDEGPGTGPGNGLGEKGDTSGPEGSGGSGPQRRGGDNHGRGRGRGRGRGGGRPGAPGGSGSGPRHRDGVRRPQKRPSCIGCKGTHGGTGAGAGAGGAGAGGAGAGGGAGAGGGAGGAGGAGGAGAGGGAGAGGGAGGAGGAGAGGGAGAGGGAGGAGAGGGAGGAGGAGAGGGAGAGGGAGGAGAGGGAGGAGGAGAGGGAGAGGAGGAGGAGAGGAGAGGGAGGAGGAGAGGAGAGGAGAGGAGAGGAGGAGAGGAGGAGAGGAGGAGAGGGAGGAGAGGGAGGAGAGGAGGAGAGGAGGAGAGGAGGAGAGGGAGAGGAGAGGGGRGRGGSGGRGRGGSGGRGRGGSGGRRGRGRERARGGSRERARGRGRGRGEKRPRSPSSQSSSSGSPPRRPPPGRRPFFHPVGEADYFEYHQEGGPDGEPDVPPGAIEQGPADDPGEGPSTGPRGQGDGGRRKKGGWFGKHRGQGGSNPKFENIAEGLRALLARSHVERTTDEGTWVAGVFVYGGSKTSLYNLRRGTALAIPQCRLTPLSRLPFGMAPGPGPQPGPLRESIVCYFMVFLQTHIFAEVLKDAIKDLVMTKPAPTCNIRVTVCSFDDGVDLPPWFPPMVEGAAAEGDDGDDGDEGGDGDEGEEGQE

[2] = biological target: T2, Lytic switch protein BZLF1 (Epstein-Barr virus (strain B95-8) (HHV-4) (Human herpesvirus 4), UniProt P03206); experiment: inhibition of BZLF1 ZTA DNA binding – biochemical, fluorescence polarization, Epstein-Barr virus, 1536-well, counter-screen for EBNA-1 inhibitor project, dose response (AID 2377); parameters: species or system human gammaherpesvirus 4;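 further: fluorescence polarization of Cy5-labelled ZRE DNA probe bound by purified Zta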
T2 sequence (P03206 whole entry): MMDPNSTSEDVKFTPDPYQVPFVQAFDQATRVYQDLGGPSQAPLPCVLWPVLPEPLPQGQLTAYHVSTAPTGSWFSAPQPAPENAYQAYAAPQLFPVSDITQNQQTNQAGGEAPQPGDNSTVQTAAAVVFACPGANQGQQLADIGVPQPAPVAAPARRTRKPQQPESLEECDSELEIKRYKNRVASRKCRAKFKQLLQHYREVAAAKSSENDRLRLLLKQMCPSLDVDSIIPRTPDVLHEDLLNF

[3] = M. tuberculosis H37Rv growth inhibitors, H37Rv strain (AID 1626); format: functional
[4] = Luminescence Cell-Based Dose Confirmation HTS to Identify Inhibitors of Platelet Dense Granule Release. [Related pubchem assays: 1663 (Primary HTS), 1678 (Summary of Project)]; format: functional
[5] = HIV-1 Vif–A3G interaction blockers – biochemical, TR-FRET, GST-Vif 1-94, biotin-A3G peptide, dose response retest, primary screen (AID 1117319); format: functional;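 further: TR-FRET signal of purified GST-Vif binding a biotinylated A3G peptide; inhibitors lower the FRET signal by blocking Vif and A3G binding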
[6] = biological target: Luciferin 4-monooxygenase (Photinus pyralis, UniProt P08659); experiment: inhibition of purified Photinus pyralis luciferase – biochemical, luminescence, dose response (AID 1891)
Luciferin 4-monooxygenase, sequence (P08659 whole entry): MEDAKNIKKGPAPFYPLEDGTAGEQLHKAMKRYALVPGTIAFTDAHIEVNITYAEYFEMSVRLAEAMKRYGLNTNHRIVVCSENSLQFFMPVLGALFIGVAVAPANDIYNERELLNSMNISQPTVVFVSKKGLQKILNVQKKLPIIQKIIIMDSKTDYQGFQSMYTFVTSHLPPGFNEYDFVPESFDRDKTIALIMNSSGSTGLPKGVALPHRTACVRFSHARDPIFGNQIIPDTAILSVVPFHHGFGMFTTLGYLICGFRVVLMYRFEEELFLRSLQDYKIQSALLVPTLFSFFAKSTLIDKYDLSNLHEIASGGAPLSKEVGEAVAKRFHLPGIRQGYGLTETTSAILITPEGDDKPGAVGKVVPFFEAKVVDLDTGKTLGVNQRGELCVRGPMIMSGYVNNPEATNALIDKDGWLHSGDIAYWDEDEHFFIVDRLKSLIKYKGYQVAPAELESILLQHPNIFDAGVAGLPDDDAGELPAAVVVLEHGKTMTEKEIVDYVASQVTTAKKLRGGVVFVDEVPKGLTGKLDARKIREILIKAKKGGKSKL

[7] = viability loss in Vero cells – cytotoxicity control for Vif-APOBEC3G degradation inhibitor project, dose response (AID 1117358); format: functional; conditions: Vero
[8] = biological target: T3, Acyl-homoserine lactone acylase PvdQ (Pseudomonas aeruginosa (strain LESB58), UniProt Q9I194); experiment: PvdQ acylase enzyme activity blockers – biochemical, fluorescence, plate reader and imaging, cherry-picks, dose response (AID 493231)
T3 sequence (Q9I194 whole entry): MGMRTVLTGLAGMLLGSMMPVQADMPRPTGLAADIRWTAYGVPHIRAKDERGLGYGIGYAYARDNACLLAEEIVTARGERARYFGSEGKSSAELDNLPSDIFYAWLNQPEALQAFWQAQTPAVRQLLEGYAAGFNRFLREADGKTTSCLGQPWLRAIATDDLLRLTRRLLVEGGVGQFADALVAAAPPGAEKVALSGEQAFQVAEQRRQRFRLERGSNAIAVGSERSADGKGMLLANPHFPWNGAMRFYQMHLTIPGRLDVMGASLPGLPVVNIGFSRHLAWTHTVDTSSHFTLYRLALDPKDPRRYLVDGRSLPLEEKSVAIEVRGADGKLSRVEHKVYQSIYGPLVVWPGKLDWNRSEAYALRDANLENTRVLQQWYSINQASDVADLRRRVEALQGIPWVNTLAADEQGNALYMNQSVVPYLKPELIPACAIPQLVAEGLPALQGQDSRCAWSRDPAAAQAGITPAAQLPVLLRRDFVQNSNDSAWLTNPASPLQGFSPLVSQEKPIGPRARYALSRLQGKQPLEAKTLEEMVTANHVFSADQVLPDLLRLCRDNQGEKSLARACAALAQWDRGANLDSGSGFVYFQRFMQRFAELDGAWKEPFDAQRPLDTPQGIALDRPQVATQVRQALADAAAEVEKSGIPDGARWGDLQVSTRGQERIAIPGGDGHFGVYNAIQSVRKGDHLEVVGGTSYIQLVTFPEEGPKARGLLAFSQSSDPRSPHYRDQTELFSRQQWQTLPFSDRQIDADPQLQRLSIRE

Vero [9] = experiment: mammalian cell viability reduction – secondary assay, cytotoxicity control for West Nile virus antiviral project, dose response (AID 1650); format: functional; conditions: Chlorocebus sabaeus
Vero [10] = experiment: inhibition of WNV-induced cytopathic effect – cell-based, CPE readout (AID 1621); format: functional; conditions: Chlorocebus sabaeus
cells [11] = format: functional, cell-based
cells [12] = format: functional, cell-based; remark: listed apart in the source
[13] = biological target: T4, Short transient receptor potential channel 4 (Mus musculus, UniProt Q9QUQ5); experiment: block of DAMGO-driven TRPC4 calcium entry – cell-based, HEK293 TRPC4/mu-opioid, Fluo-4 calcium, dose response (AID 434942); format: functional;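 further: potency of inhibitors blocking the TRPC4 calcium response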
T4 sequence (Q9QUQ5 whole entry): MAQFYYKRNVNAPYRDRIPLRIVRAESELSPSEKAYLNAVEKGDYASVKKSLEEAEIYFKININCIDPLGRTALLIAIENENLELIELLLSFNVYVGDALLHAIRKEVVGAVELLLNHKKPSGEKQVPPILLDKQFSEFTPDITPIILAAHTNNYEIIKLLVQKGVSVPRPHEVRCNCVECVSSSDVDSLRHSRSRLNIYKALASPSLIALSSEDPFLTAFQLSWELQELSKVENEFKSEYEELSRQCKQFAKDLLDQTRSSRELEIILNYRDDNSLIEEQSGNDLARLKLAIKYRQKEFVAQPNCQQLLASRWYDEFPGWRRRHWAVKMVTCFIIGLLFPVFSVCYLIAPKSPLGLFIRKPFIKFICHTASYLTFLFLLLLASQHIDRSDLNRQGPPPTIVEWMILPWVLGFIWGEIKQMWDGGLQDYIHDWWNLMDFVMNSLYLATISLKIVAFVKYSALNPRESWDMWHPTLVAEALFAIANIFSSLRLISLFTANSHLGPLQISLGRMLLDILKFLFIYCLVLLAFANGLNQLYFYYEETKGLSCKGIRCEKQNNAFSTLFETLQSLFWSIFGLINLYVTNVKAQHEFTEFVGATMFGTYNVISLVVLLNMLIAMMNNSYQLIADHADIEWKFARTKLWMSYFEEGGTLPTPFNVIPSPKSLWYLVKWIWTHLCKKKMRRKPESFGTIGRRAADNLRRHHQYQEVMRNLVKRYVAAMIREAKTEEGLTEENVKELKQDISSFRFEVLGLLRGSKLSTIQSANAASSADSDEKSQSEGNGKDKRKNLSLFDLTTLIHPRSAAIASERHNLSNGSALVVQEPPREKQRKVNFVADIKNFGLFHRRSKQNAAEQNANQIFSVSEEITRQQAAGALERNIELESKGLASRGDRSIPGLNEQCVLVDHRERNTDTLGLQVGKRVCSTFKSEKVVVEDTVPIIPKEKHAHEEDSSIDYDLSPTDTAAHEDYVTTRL

[14] = biological target: Heat shock protein HSP 90-alpha (Homo sapiens, UniProt P07900); format: functional, organism-based
[15] = reduced cellular PGC1a acetyl-lysine signal – cell-based, cherry-picked samples, dose response (AID 720514); format: functional;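 further: potency may reflect raised or lowered acetylation signal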
[16] = non-specific 3'UTR reporter inhibition in Clone20-Shn3RL – cell-based, Renilla luciferase, cherry-picked, counter-screen for Shn3 inhibitor project, dose response (AID 624133); format: functional
[17] = biological target: T5, Heat shock factor protein 1 (Mus musculus, UniProt P38532); experiment: decrease of HSF1-responsive luciferase luminescence – cell-based, NIH3T3, dose retest, confirmation (AID 2382); format: functional;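 further: NIH3T3 fibroblasts with HSF1-driven luciferase reporter stressed by proteasome inhibitor MG132; luminescence from HSF1-driven luciferase expression after 8 hours of MG132 stress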
T5 sequence (P38532 whole entry): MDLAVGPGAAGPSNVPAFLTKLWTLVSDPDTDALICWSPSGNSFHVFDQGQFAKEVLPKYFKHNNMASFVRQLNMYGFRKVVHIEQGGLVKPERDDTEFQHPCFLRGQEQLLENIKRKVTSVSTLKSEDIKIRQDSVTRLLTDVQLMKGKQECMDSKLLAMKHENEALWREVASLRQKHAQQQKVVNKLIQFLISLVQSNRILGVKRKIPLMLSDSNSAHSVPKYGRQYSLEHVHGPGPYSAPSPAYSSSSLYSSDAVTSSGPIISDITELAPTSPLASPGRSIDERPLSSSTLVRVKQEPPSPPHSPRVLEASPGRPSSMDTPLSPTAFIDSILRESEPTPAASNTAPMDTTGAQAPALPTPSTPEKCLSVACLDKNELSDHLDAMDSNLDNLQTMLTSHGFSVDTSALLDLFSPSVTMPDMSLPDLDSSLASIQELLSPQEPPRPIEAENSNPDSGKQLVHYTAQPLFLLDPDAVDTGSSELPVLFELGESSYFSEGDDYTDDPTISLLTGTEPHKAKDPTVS

[18] = biological target: T6, COUP transcription factor 2 (Homo sapiens, UniProt P24468); experiment: Luminescence-based cell-based high throughput dose response assay to identify inhibitors of COUP-TFII (NR2F2).; format: functional;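 further: HEK293 cells transiently cotransfected with COUP-TFII expression vector and reporter; luciferase reporter luminescence driven by COUP-TFII from the pX2-168 reporter plasmid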
T6 sequence (P24468 whole entry): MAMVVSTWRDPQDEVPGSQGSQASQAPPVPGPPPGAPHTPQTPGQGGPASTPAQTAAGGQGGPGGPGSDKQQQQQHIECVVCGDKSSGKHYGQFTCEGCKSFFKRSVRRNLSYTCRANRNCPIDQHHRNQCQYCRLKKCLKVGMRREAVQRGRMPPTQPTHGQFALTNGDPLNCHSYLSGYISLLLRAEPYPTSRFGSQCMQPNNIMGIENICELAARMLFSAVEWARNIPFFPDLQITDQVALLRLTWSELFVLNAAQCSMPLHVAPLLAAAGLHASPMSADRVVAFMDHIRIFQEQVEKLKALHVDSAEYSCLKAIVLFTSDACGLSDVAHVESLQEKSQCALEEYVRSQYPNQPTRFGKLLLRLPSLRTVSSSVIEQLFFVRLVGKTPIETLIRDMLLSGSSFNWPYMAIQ

[19] = loss of viability in HepG2 cells – cell-based, CellTiter-Glo, cherry-picked, cytotoxicity control for Shn3 inhibitor project, dose response (AID 624134); format: functional
cells [20] = experiment: cells
[21] = reduction of Shn3 3'UTR-driven luciferase in osteoblasts – cell-based, Clone20 osteoblasts, firefly luciferase, cherry-picked, dose response (AID 624132); format: functional;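 further: firefly luciferase luminescence from reporter carrying the Shn3 3'UTR in osteoblasts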
[22] = Trypanosoma cruzi growth suppression in host cells – NIH3T3 host cells, beta-gal luminescence, confirmation (AID 2044); format: functional, cell-based;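 further: intracellular parasites grown in NIH/3T3 mouse fibroblasts as host cells; luminescent beta-galactosidase reporter signal from transgenic T. cruzi replicating inside host cells; inhibitors lower the luminescence signal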

In the case of `CN1C(=O)N(C)C2(c3ccccc3)Nn3c(s/c(=C/c4ccco4)c3=O)=NC12c1ccccc1` (configuration not stated), the IC50 [1] is reported as > 5.47 µM (active) and the IC50 [2] is reported as > 111 µM (not active).
For `CCOC(=O)c1ccc(NC(=O)CCc2c(C)nc3ncnn3c2C)cc1`, the IC50 [3] was > 100 µM (active).
With `COc1ccccc1NC(=O)c1cc2ccc(O)cc2o/c1=N\O` the EC50 [4] was 6.14 µM (active), the IC50 [5] was > 100 µM (active) and the EC50 [6] was 1.03 µM (active). The CC50 [7] was > 40 µM (active).
For `O=C(NC1CCCCCCC1)c1cc(F)c(F)cc1Cl`, the AC50 [8] was 52.8 µM (active).
In the case of `COC(=O)c1c(NC(=O)C(Cl)Cl)sc2c1C(C(=O)OC)CC2` (configuration not stated), the CC50 (Vero [9]) is reported as 34.8 µM (active) and the IC50 (Vero [10]) is reported as 27.8 µM (active).
For `CCOc1cc(C(=O)OCC(=O)c2c(N)n(C)c(=O)n(C)c2=O)cc(OCC)c1OCC`, the IC50 [1] was 19.3 µM (not active) and the IC50 [2] was > 111 µM (not active).
With `Cc1nn(C(=O)c2cccnc2)c(C)c1Sc1ccccc1` the EC50 (cells [11]) was > 350 µM (not active), the EC50 (cells [12]) was > 350 µM (not active) and the EC50 [13] was 3.35 µM (active).
For `COc1ccc(C(=O)Nc2ccc(O)c3c(=O)cc(-c4cccc(Cl)c4)oc23)cc1`, the CC50 (Vero [9]) was 2.74 µM (active) and the IC50 (Vero [10]) was > 100 µM (active).
For `C[C@H]1C[C@@H](C)C(=O)[C@@H]([C@H](O)CC2CC(=O)NC(=O)C2)C1`, the AC50 [14] was < 0.195 µM (active), the AC50 [15] was 4.92 µM (active) and the AC50 [16] was 2.18 µM (active). For the same molecule, the EC50 [17] was 0.66 µM (active), the IC50 [18] was 1.03 µM (active) and the AC50 [19] was > 70 µM (inactive). The EC50 (cells [20]) was < 0.004 µM (active), the AC50 [21] was 0.307 µM (active) and the EC50 [22] was < 0.1 µM (active). For the same molecule, the CC50 (Vero [9]) was 0.96 µM (active) and the IC50 (Vero [10]) was 0.43 µM (active).
In the case of `CCCc1nn(C)c(C(=O)Nc2ccc(CC)cc2)c1Cl`, the IC50 [3] is reported as > 100 µM (active).
In the case of `Cc1ccc(Nc2nc(NCC3CCCO3)nc(N)c2[N+](=O)[O-])cc1C` (configuration not stated), the IC50 [1] is reported as 6.09 µM (active) and the IC50 [2] is reported as > 111 µM (not active).
For `COc1ccc(CC(C)Nc2cccc(F)c2)cc1` (configuration not stated), the AC50 [8] was 14.5 µM (active).
